Assay results as given in patent US7943770B2, “Fused quinoline derivative and use thereof” (Takeda Pharmaceutical Company Limited, priority 2004, dated 2011).

biological target: T1, hNK2 receptor (Homo sapiens, UniProt P21452); assay: Radio-ligand ([125I]-NKA) receptor binding inhibitory activity using membrane fraction of hNK2 receptor-expressing CHO cell; settings: membrane fraction of hNK2 receptor-expressing CHO cells, 25° C., 30 min
T1 construct: host or cells: CHO cells
T1 sequence (P21452 1-398): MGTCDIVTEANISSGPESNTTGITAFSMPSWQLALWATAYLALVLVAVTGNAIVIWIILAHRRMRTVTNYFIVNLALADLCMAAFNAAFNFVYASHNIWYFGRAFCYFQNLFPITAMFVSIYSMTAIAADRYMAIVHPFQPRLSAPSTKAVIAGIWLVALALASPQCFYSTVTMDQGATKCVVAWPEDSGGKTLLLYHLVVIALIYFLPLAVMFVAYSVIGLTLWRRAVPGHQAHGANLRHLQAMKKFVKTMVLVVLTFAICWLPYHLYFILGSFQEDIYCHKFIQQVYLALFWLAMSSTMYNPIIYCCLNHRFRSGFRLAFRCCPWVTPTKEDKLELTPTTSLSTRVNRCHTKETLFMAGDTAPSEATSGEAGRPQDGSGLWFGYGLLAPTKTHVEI
Description: hNK2 receptor-expressing CHO cells (produced by EUROSCREEN) were cultured in HAM-F12 medium containing 400 μg/ml Geneticin, 100 U/mL penicillin, 100 μg/mL streptomycin and 10% inactivated serum. The medium was removed and adhered cells were washed with PBS, and PBS containing 5 mM EDTA was added to detach the cells from the flask. The cells were recovered by centrifugation, suspended in suspending buffer A (15 mM Tris-HCl (pH 7.5), 2 mM MgCl2, 0.3 mM EDTA, 1 mM EGTA), disrupted by POLYTRON homogenizer (manufactured by KINEMATICA) and centrifuged at 800×g for 10 min. The supernatant was recovered and ultracentrifuged at 100000×g for 25 min. The precipitated fraction was suspended in suspending buffer B (7.5 mM Tris-HCl (pH 7.5), 12.5 mM MgCl2, 0.3 mM EDTA, 1 mM, […], 250 mM Sucrose) and cryopreserved (at −80° C.) as a receptor specimen.
An assay buffer (50 μl, 50 mM Tris-HCl (pH 7.4), 0.02% bovine serum albumin, 2 μg/mL chymostatin, 40 μg/mL bacitracin, 40 μg/mL APMSF, 3 mM MnCl2) was added to a 96 well microassay plate. Thereto was added a 20 μg/mL membrane specimen suspended in the assay buffer (50 μL). An assay buffer (50 μL) containing 2% dimethyl sulfoxide was added to examine the total binding, 4 unlabeled NKA (produced by Peptide Institute, Inc.) solution (50 μL) diluted with an assay buffer containing 2% dimethyl sulfoxide was added to examine non-specific binding, and a test compound diluted with an assay buffer (50 containing 2% dimethyl sulfoxide) was added to examine the binding inhibitory activity of the test compound. Furthermore, […] [^125I]-NKA (produced by Amersham Biosciences) solution (50 μL) was added to each well.
After reaction at 25° C. for 30 min., the reaction was stopped by rapid filtration on a unifilter plate (GF/C) (manufactured by PerkinElmer) using a cell harvester (manufactured by PerkinElmer) and the cells were washed 5 times with 50 mM Tris-HCl (pH 7.4) buffer containing 0.02% bovine serum albumin (250 μL). The GF/C filter plate was dried and 20 μl, of MicroScinti-O (manufactured by PerkinElmer) was added and the radioactivity was measured in Topcount (manufactured by PerkinElmer). The GF/C filter plate, which had been immersed in 0.3% polyethyleneimine for one day, was used. Specific binding is shown by the value obtained by subtracting non-specific binding from the total binding. The binding inhibitory activity of the test compound is shown by the ratio of the value obtained by subtracting the measured value associated with the addition of the test compound from the total binding, to the value of the specific binding.

Structure (SMILES) | IC50 [nM]
Cc1ccccc1C(=O)N[C@@H]1CCCC[C@@H]1C(=O)N1CC[C@@H]2[C@H](c3ccccc3)Nc3ccccc3[C@@H]21 [Example 97, 2-Methyl-N-((1R,2S)-2-{[(3aR,4R,9bR)-4-phenyl-2,3,3a,4,5,9b-hexahydro-1H-pyrrolo[3,2-c]quinolin-1-yl]carbonyl}cyclohexyl)benzamide] | < 10
N#Cc1ccc(C(=O)N[C@@H]2CCCC[C@@H]2C(=O)N2CC[C@@H]3[C@H](c4ccccc4)Nc4ccccc4[C@@H]32)cc1 [Example 102, 4-Cyano-N-((1R,2S)-2-([(3aR,4R,9bR)-4-phenyl-2,3,3a,4,5,9b-hexahydro-1H-pyrrolo[3,2-c]quinolin-1-yl]carbonyl)cyclohexyl)benzamide] | < 10
N#Cc1ccc(C(=O)N[C@@H]2CCCC[C@@H]2C(=O)N2CC[C@@H]3[C@H](c4ncc[nH]4)Nc4ccccc4[C@@H]32)cc1 [Example 304, 4-cyano-N-((1R,2S)-2-{[(3aR,4R,9bR)-4-(1H-imidazol-2-yl)-2,3,3a,4,5,9b-hexahydro-1H-pyrrolo[3,2-c]quinolin-1-yl]carbonyl}cyclohexyl)benzamide] | < 1
COC[C@@H]1Nc2ccccc2[C@H]2[C@@H]1CCN2C(=O)[C@H]1CCCC[C@H]1NC(=O)c1ccc(-n2ccnc2C)cc1 [Example 271, N-((1R,2S)-2-{[(3aR,4R,9bR)-4-(Methoxymethyl)-2,3,3a,4,5,9b-hexahydro-1H-pyrrolo[3,2-c]quinolin-1-yl]carbonyl}cyclohexyl)-4-(2-methyl-1H-imidazol-1-yl)benzamide] | < 10
O=C(N[C@@H]1CCCC[C@@H]1C(=O)N1CC[C@@H]2[C@H](c3ncc[nH]3)Nc3ccccc3[C@@H]21)c1ccccc1 (relative stereo) [Example 54, N-((1R,2S)-2-{[(3aR*,4R*,9bR*)-4-(1H-Imidazol-2-yl)-2,3,3a,4,5,9b-hexahydro-1H-pyrrolo[3,2-c]quinolin-1-yl]carbonyl}cyclohexyl)benzamide] | < 1
COC[C@@H]1Nc2ccccc2[C@H]2[C@@H]1CCN2C(=O)[C@H]1CCCC[C@H]1NC(=O)/C=C/c1ccc(C(F)(F)F)cc1 [Example 209] | < 1
O=C(NC1CCCCC1)N[C@@H]1CCCC[C@@H]1C(=O)N1CC[C@@H]2[C@H](c3ccccc3)Nc3ccccc3[C@@H]21 [Example 149, N-Cyclohexyl-N′-((1R,2S)-2-{[(3aR,4R,9bR)-4-phenyl-2,3,3a,4,5,9b-hexahydro-1H-pyrrolo[3,2-c]quinolin-1-yl]carbonyl}cyclohexyl)urea] | < 10
CCC[C@@H]1Nc2ccccc2[C@H]2[C@@H]1CCN2C(=O)[C@H]1CCCC[C@H]1NC(=O)Nc1ccccc1 [Example 195, N-Phenyl-N′-((1R,2S)-2-{[(3aR,4S,9bR)-4-propyl-2,3,3a,4,5,9b-hexahydro-1H-pyrrolo[3,2-c]quinolin-1-yl]carbonyl}cyclohexyl)urea] | < 1
O=C(NCC[C@@H]1Nc2ccccc2[C@H]2[C@@H]1CCN2C(=O)[C@H]1CCCC[C@H]1NC(=O)c1ccccc1)OCc1ccccc1 [Example 68, Benzyl 2-((3aR,4S,9bR)-1-{[(1S,2R)-2-(benzoylamino)cyclohexyl]carbonyl}-2,3,3a,4,5,9b-hexahydro-1H-pyrrolo[3,2-c]quinolin-4-yl)ethylcarbate] | < 10
O=C(N[C@@H]1CCCC[C@@H]1C(=O)N1CC[C@@H]2[C@H](c3ccoc3)Nc3ccccc3[C@@H]21)c1ccccc1 [Example 63, N-((1R,2S)-2-{[(3aR,4R,9bR)-4-(3-Furyl)-2,3,3a,4,5,9b-hexahydro-1H-pyrrolo[3,2-c]quinolin-1-yl]carbonyl}cyclohexyl)benzamide] | < 1
O=C(N[C@@H]1CCCC[C@@H]1C(=O)N1CC[C@@H]2[C@H](c3ccccn3)Nc3ccccc3[C@@H]21)c1ccccc1 (relative stereo) [Example 19, N-((1R,2S)-2-{[(3aR*,4R*,9bR*)-4-Pyridin-2-yl-2,3,3a,4,5,9b-hexahydro-1H-pyrrolo[3,2-c]quinolin-1-yl]carbonyl}cyclohexyl)benzamide] | < 10
CCC[C@@H]1Nc2ccccc2[C@H]2[C@@H]1CCN2C(=O)[C@H]1CCCC[C@H]1NC(=O)c1ccccc1 [Example 62, N-{(1R,2S)-2-[(3aR,4S,9bR)-(4-Propyl-2,3,3a,4,5,9b-hexahydro-1H-pyrrolo[3,2-c]quinolin-1-yl)carbonyl]cyclohexyl}benzamide] | < 1
O=C(Nc1cccc(Cl)c1)N[C@@H]1CCCC[C@@H]1C(=O)N1CC[C@@H]2[C@H](c3ccccc3)Nc3ccccc3[C@@H]21 [Example 141, N-(3-Chlorophenyl)-N′-((1R,2S)-2-{[(3aR,4R,9bR)-4-phenyl-2,3,3a,4,5,9b-hexahydro-1H-pyrrolo[3,2-c]quinolin-1-yl]carbonyl}cyclohexyl)urea] | < 10
O=C(Nc1ccccc1)N[C@@H]1CCCC[C@@H]1C(=O)N1CCc2c(-c3ccccc3)nc3ccccc3c21 [Example 326, N-Phenyl-N′-{(1R,2S)-2-[(4-phenyl-2,3-dihydro-1H-pyrrolo[3,2-c]quinolin-1-yl)carbonyl]cyclohexyl}urea] | < 10
Cc1occc1[C@@H]1Nc2ccccc2[C@H]2[C@@H]1CCN2C(=O)[C@H]1CCCC[C@H]1NC(=O)c1ccccc1 [Example 75, N-((1R,2S)-2-{[(3aR,4R,9bR)-4-(2-Methyl-3-furyl)-2,3,3a,4,5,9b-hexahydro-1H-pyrrolo[3,2-c]quinolin-1-yl]carbonyl}cyclohexyl)benzamide] | < 10
COC[C@@H]1Nc2ccccc2[C@H]2[C@@H]1CCN2C(=O)[C@H]1CCCC[C@H]1NC(=O)c1ccc2ccccc2n1 [Example 247, N-((1R,2S)-2-{[(3aR,4R,9bR)-4-(Methoxymethyl)-2,3,3a,4,5,9b-hexahydro-1H-pyrrolo[3,2-c]quinolin-1-yl]carbonyl}cyclohexyl)quinoline-2-carboxamide] | < 10
COC[C@@H]1Nc2ccccc2[C@H]2[C@@H]1CCN2C(=O)[C@H]1CCCC[C@H]1NC(=O)CNc1ccccc1 [Example 238, N^1-((1R,2S)-2-{[(3aR,4R,9bR)-4-(Methoxymethyl)-2,3,3a,4,5,9b-hexahydro-1H-pyrrolo[3,2-c]quinolin-1-yl]carbonyl}cyclohexyl)-N^2-phenylglycinamide] | < 10
O=C(N[C@@H]1CCCC[C@@H]1C(=O)N1CC[C@@H]2[C@H](c3ccccc3)Nc3ccccc3[C@@H]21)c1ccc2[nH]cnc2c1 [Example 133, N-((1R,2S)-2-{[(3aR,4R,9bR)-4-Phenyl-2,3,3a,4,5,9b-hexahydro-1H-pyrrolo[3,2-c]quinolin-1-yl]carbonyl}cyclohexyl)-1H-benzimidazole-5-carboxamide] | < 1
CC(C)NC(=O)N[C@@H]1CCCC[C@@H]1C(=O)N1CC[C@@H]2[C@H](c3ccccc3)Nc3ccccc3[C@@H]21 [Example 152, N-Isopropyl-N′-((1R,2S)-2-{[(3aR,4R,9bR)-4-phenyl-2,3,3a,4,5,9b-hexahydro-1H-pyrrolo[3,2-c]quinolin-1-yl]carbonyl}cyclohexyl)urea] | < 10
O=C(NCc1ccccc1)N[C@@H]1CCCC[C@@H]1C(=O)N1CC[C@@H]2[C@H](c3ccccc3)Nc3ccccc3[C@@H]21 [Example 143, N-Benzyl-N′-((1R,2S)-2-{[(3aR,4R,9bR)-4-phenyl-2,3,3a,4,5,9b-hexahydro-1H-pyrrolo[3,2-c]quinolin-1-yl]carbonyl}cyclohexyl)urea] | < 10
COC[C@@H]1Nc2ccccc2[C@H]2[C@@H]1CCN2C(=O)[C@H]1CCCC[C@H]1NC(=O)Nc1ccc(-n2ccnc2)cc1 [Example 277, N-[4-(1H-Imidazol-1-yl)phenyl]-N′-((1R,2S)-2-{[(3aR,4R,9bR)-4-(methoxymethyl)-2,3,3a,4,5,9b-hexahydro-1H-pyrrolo[3,2-c]quinolin-1-yl]carbonyl}cyclohexyl)urea] | < 1
